Test systems include CAKI-1; HCT-116; COLO 205; NCI-H460; IGROV-1; SF-539; UACC-62; OVCAR-8; MOLT-4; HCT-15; CCRF-CEM; HT-29; SNB-19; 786-0; HCC 2998; OVCAR-3; RPMI-8226; NCI-H522.
Common to all, as to assay: inhibition of tumour cell growth, NCI panel, 48 h

SMILES strings stand for the structures.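 Test compounds were applied to cells in 96-well plates for 48 hours at 5 doses. GI50 marks 50% less growth.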 Active and inactive are the calls of the source. Rule as the data show it: active = GI50 up to about 1.1 µM and inactive = higher.

The values below come from ChEMBL document CHEMBL1201862, “PubChem BioAssay data set” (2004).

Regarding `CN(/N=C\c1ccnc2ccccc12)c1ccc([N+](=O)[O-])cc1`, the GI50 is > 100 µM (inactive) in the test with CAKI-1; 11.6 µM (inactive) in the test on HCT-116; > 100 µM (inactive) in the test with COLO 205; 5.73 µM (inactive) in the test on NCI-H460; > 100 µM (inactive) in the test on IGROV-1; 27 µM (inactive) with SF-539. Further, the GI50 with UACC-62 is 84.7 µM (inactive); with OVCAR-8, 95.7 µM (inactive); in the test on MOLT-4 it was > 100 µM (inactive); in the test on HCT-15 it was more than 100 µM; with CCRF-CEM it was 19.5 µM (inactive); in the test on HT-29, > 100 µM (inactive). In addition, the GI50 with SNB-19 is > 100 µM (inactive); in the test on 786-0, > 100 µM (inactive); with HCC 2998, > 100 µM (inactive); with OVCAR-3, > 100 µM (inactive); in the test with RPMI-8226, 8.26 µM (inactive).

`Sc1nnc(COc2ccc(Cl)cc2)n1-c1ccccc1`: the GI50 in the test on CAKI-1 was 17.5 µM (inactive); in the test with HCT-116, 46.1 µM (inactive); in the test on COLO 205 it was 88.1 µM (inactive); with NCI-H460 it was > 100 µM (inactive); in the test with IGROV-1, > 100 µM (inactive); in the test with NCI-H522, 5.4 µM (inactive). The GI50 in the test on SF-539 was > 100 µM (inactive); in the test on UACC-62 it was > 100 µM (inactive); with OVCAR-8 it was > 100 µM (inactive); in the test with MOLT-4, 88.3 µM (inactive); in the test on HCT-15, more than 100 µM; with CCRF-CEM, 74.1 µM (inactive). Moreover, the GI50 in the test with HT-29, in the test on SNB-19, in the test on 786-0, with HCC 2998 and in the test with OVCAR-3 was > 100 µM (inactive) throughout.

`O=C(CCCCCCCCCCc1ccccc1)C1=C(O)CCCC1=O`: the GI50 with CAKI-1 is 7.85 µM (inactive); with HCT-116 it was 22.9 µM (inactive); in the test on COLO 205 it was 17.6 µM (inactive); with NCI-H460 it was 18.9 µM (inactive); in the test on IGROV-1 it was 35.4 µM (inactive); in the test with NCI-H522, 27 µM (inactive). For the same molecule, the GI50 with SF-539 was 41.9 µM (inactive); in the test on UACC-62, 25.5 µM (inactive); with OVCAR-8, 24.4 µM (inactive); in the test with MOLT-4 it was 30.3 µM (inactive); in the test on CCRF-CEM it was 16.8 µM (inactive); in the test with HT-29, 26.6 µM (inactive). Further, the GI50 was 46.2 µM (inactive) with SNB-19; 31.7 µM (inactive) with 786-0; 35.9 µM (inactive) in the test on HCC 2998; 32.8 µM (inactive) in the test with OVCAR-3; 29 µM (inactive) in the test with RPMI-8226.

With `CC1=NN(C(=O)c2ccc([N+](=O)[O-])cc2)C(=O)C1/N=N/c1ccccc1C(=O)O` (stereo unspecified), the GI50 in the test with CAKI-1 was > 100 µM (inactive); with HCT-116 it was > 100 µM (inactive); in the test on COLO 205, > 100 µM (inactive); in the test with NCI-H460, > 100 µM (inactive); in the test with IGROV-1, > 100 µM (inactive); in the test on NCI-H522, 79.4 µM (inactive). The GI50 in the test with SF-539 is > 100 µM (inactive); with UACC-62, 45 µM (inactive); in the test on OVCAR-8 it was > 100 µM (inactive); in the test with MOLT-4 it was > 100 µM (inactive); with CCRF-CEM, 75 µM (inactive); in the test with HT-29, > 100 µM (inactive). Besides, the GI50 in the test with SNB-19, in the test on 786-0, in the test on HCC 2998, in the test with OVCAR-3 and in the test with RPMI-8226 was > 100 µM (inactive) in each case.

For `COc1ccc(C(O)C(c2ccc(OCc3ccccc3)cc2)c2ccc(OCc3ccccc3)cc2)cc1` (stereo unspecified), the GI50 in the test on CAKI-1, in the test with HCT-116, with COLO 205, in the test on NCI-H460, in the test on IGROV-1 and in the test with NCI-H522 was > 100 µM (inactive) each time. The GI50 with SF-539 is > 100 µM (inactive); in the test on UACC-62 it was > 100 µM (inactive); in the test with OVCAR-8, > 100 µM (inactive); with HCT-15, more than 100 µM; with CCRF-CEM it was > 100 µM (inactive); in the test with HT-29 it was > 100 µM (inactive). For the same molecule, the GI50 in the test with SNB-19, in the test on 786-0, in the test on HCC 2998, in the test on OVCAR-3 and with RPMI-8226 was > 100 µM (inactive) in each case.

On to `Cc1cccc(/C=N/N=C(\N)NO)n1`, for which the GI50 in the test on CAKI-1 was 20.8 µM (inactive); in the test with HCT-116 it was > 100 µM (inactive); in the test with COLO 205, > 100 µM (inactive); with NCI-H460, 26.9 µM (inactive); in the test with IGROV-1, 7.26 µM (inactive); in the test with NCI-H522, 37.8 µM (inactive). The GI50 is 26.7 µM (inactive) with SF-539; 2.12 µM (inactive) in the test with UACC-62; 58.7 µM (inactive) with OVCAR-8; 51.4 µM (inactive) in the test on MOLT-4; more than 10 µM in the test with HCT-15; 42.5 µM (inactive) with CCRF-CEM. Moreover, the GI50 in the test with HT-29 was 48.4 µM (inactive); with 786-0, 36.8 µM (inactive); in the test on HCC 2998, 83.8 µM (inactive); with OVCAR-3, > 100 µM (inactive).

Regarding `Cc1cccc(C(C)(C)C)c1NC(=O)CC1C(=O)Nc2ccccc2[S+]1[O-]` (stereo unspecified), the GI50 was 39.3 µM (inactive) in the test on CAKI-1; 40.6 µM (inactive) with HCT-116; 21.1 µM (inactive) in the test with COLO 205; 54.1 µM (inactive) with NCI-H460; 39.4 µM (inactive) in the test on NCI-H522; 75.7 µM (inactive) in the test on SF-539. Further, the GI50 is 97.1 µM (inactive) in the test with OVCAR-8; 20.3 µM (inactive) with MOLT-4; 49.2 µM in the test with HCT-15; 65 µM (inactive) with HT-29; 57.1 µM (inactive) in the test on SNB-19; > 100 µM (inactive) in the test with 786-0. Further, the GI50 in the test on HCC 2998 is 68.1 µM (inactive); in the test with OVCAR-3 it was 49.7 µM (inactive); with RPMI-8226 it was 34.3 µM (inactive).

Turning to `CCC(C)CN1C(=O)NC(C)(Cc2ccccc2)C1=O` (stereo unspecified), the GI50 with CAKI-1, in the test with COLO 205, in the test on NCI-H460, in the test with NCI-H522, with SF-539 and with OVCAR-8 was > 100 µM (inactive) throughout. Moreover, the GI50 in the test with HT-29, in the test with SNB-19, with 786-0 and in the test with HCC 2998 was > 100 µM (inactive) throughout.

For the molecule `N=C(c1ccccc1)N(O)C1CCCCC1`, the GI50 in the test on CAKI-1, in the test with HCT-116, in the test on COLO 205, in the test on NCI-H460, in the test with NCI-H522 and with SF-539 was > 100 µM (inactive) in each case. Besides, the GI50 with OVCAR-8, with HT-29, in the test with SNB-19, in the test on 786-0 and in the test with HCC 2998 was > 100 µM (inactive) each time.

With `O=c1nc(-c2ccccc2)c2c3c(cccn13)CCC2`, the GI50 in the test with CAKI-1, with HCT-116, in the test with NCI-H460, with IGROV-1, in the test on NCI-H522 and in the test on SF-539 was > 100 µM (inactive) each time. Also, the GI50 with UACC-62 is > 100 µM (inactive); in the test on OVCAR-8 it was > 100 µM (inactive); with MOLT-4 it was > 100 µM (inactive); in the test with HCT-15, more than 100 µM; in the test with CCRF-CEM it was > 100 µM (inactive); in the test on HT-29, > 100 µM (inactive). Moreover, the GI50 in the test on SNB-19, in the test with 786-0, in the test with HCC 2998, in the test with OVCAR-3 and with RPMI-8226 was > 100 µM (inactive) in each case.

Consider `O=[N+]([O-])C=C1c2ccccc2-c2ccccc21`, for which the GI50 in the test on CAKI-1 was 11.4 µM (inactive); in the test on HCT-116, 4.75 µM (inactive); in the test with COLO 205 it was 1.86 µM (inactive); in the test with NCI-H460 it was 20.1 µM (inactive); in the test on IGROV-1, > 10 µM (inactive); in the test with NCI-H522 it was 3.76 µM (inactive). The GI50 in the test on SF-539 is 17.5 µM (inactive); with OVCAR-8, 16.4 µM (inactive); in the test on MOLT-4 it was 3.7 µM (inactive); in the test on HCT-15, 19.1 µM; in the test on CCRF-CEM, 4.91 µM (inactive); with HT-29 it was 20 µM (inactive). In addition, the GI50 in the test on SNB-19 is 23 µM (inactive); with 786-0 it was 16.7 µM (inactive); in the test with HCC 2998 it was 16.8 µM (inactive); in the test on OVCAR-3 it was 15.1 µM (inactive); in the test with RPMI-8226 it was 2.18 µM (inactive).

For `CC1=C/C(=N\NS(=O)(=O)c2ccc([N+](=O)[O-])cc2)CC(C)(C)C1`, the GI50 was > 100 µM (inactive) in the test on CAKI-1; 84.3 µM (inactive) in the test on HCT-116; > 100 µM (inactive) in the test on COLO 205; 51.6 µM (inactive) in the test with NCI-H460; 57.5 µM (inactive) with IGROV-1; 86.5 µM (inactive) in the test with NCI-H522. Also, the GI50 in the test with SF-539 was > 100 µM (inactive); with UACC-62 it was 50.2 µM (inactive); in the test with OVCAR-8, > 100 µM (inactive); in the test with MOLT-4 it was > 100 µM (inactive); in the test on HCT-15 it was 49.8 µM; in the test on CCRF-CEM it was > 100 µM (inactive). Further, the GI50 in the test with SNB-19 is 69 µM (inactive); in the test with 786-0, > 100 µM (inactive); with HCC 2998 it was > 100 µM (inactive); in the test with OVCAR-3, > 100 µM (inactive); in the test with RPMI-8226, > 100 µM (inactive).

Take `O=[N+]([O-])c1nccn1COCCO`: the GI50 in the test on CAKI-1 was > 100 µM (inactive); with HCT-116, > 100 µM (inactive); in the test with COLO 205 it was > 100 µM (inactive); in the test on NCI-H460 it was > 100 µM (inactive); in the test on NCI-H522, > 100 µM (inactive); with MOLT-4, 0.442 µM (active). Besides, the GI50 was more than 100 µM in the test with HCT-15; > 100 µM (inactive) with CCRF-CEM; > 100 µM (inactive) in the test on HT-29; > 100 µM (inactive) in the test with SNB-19; > 100 µM (inactive) with 786-0; > 100 µM (inactive) in the test with HCC 2998. Moreover, the GI50 with RPMI-8226 is > 100 µM (inactive).
